Where two headings read alike, the source gives them in different places.
How the values were obtained:
[1] = test system: dopamine (symptoms elicited with the dopamine agonist apomorphine); test: combined apomorphine (APO), tryptamine (TRY) and norepinephrine (NOR) test in rats: apomorphine (APO); assay type: in vivo; settings: Rattus norvegicus, read-out: APO ED50
[2] = test system: serotonin (peripheral symptoms, hyperaemia, elicited with serotonin or tryptamine); test: combined APO, TRY, NOR test in rats: tryptamine (TRY) hyperaemia; assay type: in vivo; settings: Rattus norvegicus
[3] = test system: serotonin (central symptoms, convulsions, elicited with serotonin or tryptamine); test: combined APO, TRY, NOR test in rats: tryptamine (TRY) convulsions; assay type: in vivo; settings: Rattus norvegicus, read-out: TRY convulsions ED50
[4] = test system: norepinephrine (death upon administration of the α2 -agonist norepinephrine); test: animal or person; assay type: in vivo, rats; settings: Rattus norvegicus, read-out: NOR ED50
[5] = combined test in rats, apomorphine
[6] = combined test in rats, tryptamine, central (convulsions)

Row | SMILES | ED50 [1, 5] [mg/kg] | ED50 [2] [mg/kg] | ED50 [3, 6] [mg/kg] | ED50 [4] [mg/kg] | ED50 [1] [mg/kg] | ED50 [3] [mg/kg]
1 | COC1CCCn2c1nc(C)c(CCN1CCC(c3noc4cc(F)ccc34)CC1)c2=O (racemic) [Compound 7, (±)-3-[2-[4-(6-fluoro-1,2-benzisoxazol-3-yl)-1-piperidinyl]ethyl]-6,7,8,9-tetrahydro-9-methoxy-2-methyl-4H-pyrido[1,2-a]pyrimidin-4-one] | 0.02 | 0.00125 | 0.02 | – | – | –
2 | COc1cccn2c(=O)c(CCN3CCC(c4noc5cc(F)ccc45)CC3)c(C)nc12 [Compound 1, 3-[2-[4-(6-fluoro-1,2-benzisoxazol-3-yl)-1-piperidinyl]ethyl]-9-methoxy-2-methyl-4H-pyrido[1,2-a]pyrimidin-4-one] | 0.31 | 0.0025 | 0.16 | – | – | –
3 | CCOCOc1cccn2c(=O)c(CCN3CCC(c4noc5cc(F)ccc45)CC3)c(C)nc12 [Compound 2, 9-(ethoxymethoxy)-3-[2-[4-(6-fluoro-1,2-benzisoxazol-3-yl)-1-piperidinyl]ethyl]-2-methyl-4H-pyrido[1,2-a]pyrimidin-4-one] | – | 0.01 | – | 1.25 | 1.25 | 1.25
4 | CCCCCCCCCCCCOc1cccn2c(=O)c(CCN3CCC(c4noc5cc(F)ccc45)CC3)c(C)nc12 [Compound 3] | > 10 | 1.25 | > 10 | – | – | –
5 | C=CCOc1cccn2c(=O)c(CCN3CCC(c4noc5cc(F)ccc45)CC3)c(C)nc12 [Compound 4, 3-[2-[4-(6-fluoro-1,2-benzisoxazol-3yl)-1-piperidinyl]ethyl]-2-methyl-9-(2-propenyloxy)-4H-pyrido[1,2-a]pyrimidin-4-one] | 0.31 | 0.005 | 0.31 | 0.16 | – | –
6 | Cc1nc2c(OCCCC#N)cccn2c(=O)c1CCN1CCC(c2noc3cc(F)ccc23)CC1 [Compound 5] | – | 0.005 | – | 1.25 | 1.25 | 1.25
7 | C#CCOc1cccn2c(=O)c(CCN3CCC(c4noc5cc(F)ccc45)CC3)c(C)nc12 [Compound 6, 3-[2-[4-(6-fluoro-1,2-benzisoxazol-3-yl)-1-piperidinyl]ethyl]-2-methyl-9-(2-propynyloxy)-4H-pyrido[1,2-a]pyrimidin-4-one] | < 0.63 | – | < 0.63 | < 0.63 | – | –
8 | CCOCOC1CCCn2c1nc(C)c(CCN1CCC(c3noc4cc(F)ccc34)CC1)c2=O (stereo not drawn) [Compound 8] | 0.31 | 0.00125 | 0.16 | – | – | –
9 | CCCCCCCCCCCCOC1CCCn2c1nc(C)c(CCN1CCC(c3noc4cc(F)ccc34)CC1)c2=O (stereo not drawn) [Compound 9] | 10 | 0.01 | 1.25 | 2.5 | – | –
10 | CCCOC1CCCn2c1nc(C)c(CCN1CCC(c3noc4cc(F)ccc34)CC1)c2=O (stereo not drawn) [Compound 10, 3-[2-[4-(6-fluoro-1,2-benzisoxazol-3-yl)-1-piperidinyl]ethyl]-6,7,8,9-tetrahydro-2-methyl-9-propoxy-4H-pyrido[1,2-a]pyrimidin-4-one] | 0.08 | 0.002 | 0.08 | 0.16 | – | –
11 | COCCOC1CCCn2c1nc(C)c(CCN1CCC(c3noc4cc(F)ccc34)CC1)c2=O (stereo not drawn) [Compound 11] | 0.31 | 0.00125 | 0.63 | 1.25 | – | –

Reference: patent publication US5688799A, “9-Hydroxy-pyrido[1,2-a]pyrimidin-4-one ether derivatives” (Janssen Pharmaceutica N.V., priority 1993, dated 1997)
